The test system of assay [1] is IFN-γ. As to the kind of experiment: IFN-γ levels in PBMC under LPS stimulation (ELISA). It is filed as cell-based, human. Particulars: for Percentage IFN-γ levels compared to 100% untreated cells under LPS stimulation: PBMC; for concentration of IFN-γ in LPS stimulated cells: text summary of Table 1, concentration not stated. On the procedure: 1) Isolation, Culture and Treatment of Peripheral Blood Mononuclear Cells (PBMC) Blood was collected in 6 ml vacutainers (green cap). Blood was processed within 2 h of collection. Materials used: Non-coagulated blood; FCS; RPMI-1640 media supplemented with L-Gln and P/S; PBS; sterile tips and pipettes; Sterile 15 ml Falcon; Sterile V-bottom 96-well plates with lids; Neubauer chamber; Trypan Blue solution; 70% IPA solution; Accuspin-Histopaque tubes (Sigma, A7054) Procedure: • 1. Dilute samples 1:1 in sterile PBS; • 2. Add 30 ml of diluted blood into an Accuspin-Histopaque tube (Sigma, A7054); • 3. Centrifuge at 800 rcf 15min at room temperature (RT); • 4. After centrifugation, the red blood cells will remain at the bottom below the frit. The monocytes (PBMC) will be present on a layer above the frit, with the plasma on top; • 5. Collect the PBMC layer with a pipette into a fresh 15 ml Falcon tube and top up to 15 ml of PBS; • 6. Centrifuge at 250 rcf 10 min at RT; • 7. Discard the supernatant, flick the pellet and add another 10 ml of PBS; • 8. Centrifuge at 250 rcf 10 min at RT; • 9. Repeat steps 7 and 8; • 10. […] Count cells and make a 4×10^6 cell/ml suspension in complete medium. Add 100 μl of cell suspension per well in a V-bottom 96-well plate. Then add 50 μl of stimulant or vehicle in complete media, and 50 μl of drug or vehicle in complete media. Incubate the cells for 24 h at 37° C. 5% CO2; • 12. After incubation, take 60 μl of cell supernatant to measure IFNγ and TNFα by ELISA (OptEIA human IFNγ, cat No. 555142 and human TNF, Cat No. 555212) following manufacturer's instructions (BD Biosciences); The two mitogens that the inventors used to stimulate lymphocytes, and therefore assess immune function, were lipopolysaccharide (LPS) and Concanavalin A (Con A). LPS acts on B cells but not T cells, whereas Con A acts on T cells but not B cells. The effects of two embodiments of the compound represented by formula I, i.e. dobutamine (referred to in the tables as BC1021) and ritodrine (BC1023), on the levels of IFN-γ and TNF-α were investigated in LPS and Con A stimulated assays. Peripheral Blood Mononuclear Cells (PMBC) were independently administered with each mitogen, LPS or Con A, and then treated with either dobutamine or ritodrine. Control experiments were conducted in which no LPS or Con A was added, such that any effect on the levels of IFN-γ and TNF-α could be directly attributed to the presence of the test compound, dobutamine or ritodrine. The values in the Tables are expressed as the percentage value of the LPS only control. […] Standard deviation values (s.d.) are given underneath each value of expressed IFN-γ levels.

For assay [2], the system named is IFN-γ. As to the kind of experiment: IFN-γ levels in PBMC under Con A stimulation (ELISA). In kind it is cell-based, human. Particulars: for Percentage IFN-γ levels compared to 100% untreated cells under Con A stimulation: PBMC; for concentration of IFN-γ in Con A stimulated cells: text summary of Table 4, concentration not stated. The procedure: 1) Isolation, Culture and Treatment of Peripheral Blood Mononuclear Cells (PBMC) Blood was collected in 6 ml vacutainers (green cap). Blood was processed within 2 h of collection. Materials used: Non-coagulated blood; FCS; RPMI-1640 media supplemented with L-Gln and P/S; PBS; sterile tips and pipettes; Sterile 15 ml Falcon; Sterile V-bottom 96-well plates with lids; Neubauer chamber; Trypan Blue solution; 70% IPA solution; Accuspin-Histopaque tubes (Sigma, A7054) Procedure: • 1. Dilute samples 1:1 in sterile PBS; • 2. Add 30 ml of diluted blood into an Accuspin-Histopaque tube (Sigma, A7054); • 3. Centrifuge at 800 rcf 15min at room temperature (RT); • 4. After centrifugation, the red blood cells will remain at the bottom below the frit. The monocytes (PBMC) will be present on a layer above the frit, with the plasma on top; • 5. Collect the PBMC layer with a pipette into a fresh 15 ml Falcon tube and top up to 15 ml of PBS; • 6. Centrifuge at 250 rcf 10 min at RT; • 7. Discard the supernatant, flick the pellet and add another 10 ml of PBS; • 8. Centrifuge at 250 rcf 10 min at RT; • 9. Repeat steps 7 and 8; • 10. […] Count cells and make a 4×10^6 cell/ml suspension in complete medium. Add 100 μl of cell suspension per well in a V-bottom 96-well plate. Then add 50 μl of stimulant or vehicle in complete media, and 50 μl of drug or vehicle in complete media. Incubate the cells for 24 h at 37° C. 5% CO2; • 12. After incubation, take 60 μl of cell supernatant to measure IFNγ and TNFα by ELISA (OptEIA human IFNγ, cat No. 555142 and human TNF, Cat No. 555212) following manufacturer's instructions (BD Biosciences); The two mitogens that the inventors used to stimulate lymphocytes, and therefore assess immune function, were lipopolysaccharide (LPS) and Concanavalin A (Con A). LPS acts on B cells but not T cells, whereas Con A acts on T cells but not B cells. The effects of two embodiments of the compound represented by formula I, i.e. dobutamine (referred to in the tables as BC1021) and ritodrine (BC1023), on the levels of IFN-γ and TNF-α were investigated in LPS and Con A stimulated assays. Peripheral Blood Mononuclear Cells (PMBC) were independently administered with each mitogen, LPS or Con A, and then treated with either dobutamine or ritodrine. Control experiments were conducted in which no LPS or Con A was added, such that any effect on the levels of IFN-γ and TNF-α could be directly attributed to the presence of the test compound, dobutamine or ritodrine.
(In general: In an ELISA, binding on a coated surface is turned into a signal by an enzyme label.)

Setting [3] is: compound only (no Con A), 10 μM.
[4] abbreviates: compound only (no Con A), 100 μM.

Regarding `CC(NCCc1ccc(O)cc1)C(O)c1ccc(O)cc1` (centres unmarked) [BC1023, ritodrine], the “Percentage IFN-γ levels compared to 100% untreated cells under LPS stimulation” value with IFN-γ [1] (+ LPS, compound 1 μM, 24 h) is 44.79%; in the assay on IFN-γ [1] (+ LPS, compound 10 μM, 24 h) it was 51.41%; in the assay with IFN-γ [1] (+ LPS, compound 100 μM, 24 h), 38.74%; with IFN-γ [1] (compound only (no LPS), 1 μM) it was 1.04%; with IFN-γ [1] (compound only (no LPS), 10 μM), 2.73%; with IFN-γ [1] (compound only (no LPS), 100 μM), 5.46%. Besides, in the assay with IFN-γ [1], the “concentration of IFN-γ in LPS stimulated cells” value is reported as “decreased”. For the same compound, the “Percentage IFN-γ levels compared to 100% untreated cells under Con A stimulation” value is listed as 39.93% with IFN-γ [2] (+ Con A, compound 1 μM, 24 h); 34.25% in the assay on IFN-γ [2] (+ Con A, compound 10 μM, 24 h); 41.69% with IFN-γ [2] (+ Con A, compound 100 μM, 24 h); −0.86% with IFN-γ [2] (compound only (no Con A), 1 μM); −1.52% with IFN-γ [2] (setting [3]); −1.87% in the assay with IFN-γ [2] (setting [4]). Besides, in the assay on IFN-γ [2], the “concentration of IFN-γ in Con A stimulated cells” value is reported as “decreased”.

With `CC(CCc1ccc(O)cc1)NCCc1ccc(O)c(O)c1` (centres unmarked) [BC1021, dobutamine], the “Percentage IFN-γ levels compared to 100% untreated cells under LPS stimulation” value with IFN-γ [1] (+ LPS, compound 1 μM, 24 h) is given as 82.88%; with IFN-γ [1] (+ LPS, compound 10 μM, 24 h) it was 29.84%; in the assay on IFN-γ [1] (+ LPS, compound 100 μM, 24 h), 37.22%; in the assay with IFN-γ [1] (compound only (no LPS), 1 μM), 1.21%; with IFN-γ [1] (compound only (no LPS), 10 μM), −0.33%; in the assay with IFN-γ [1] (compound only (no LPS), 100 μM) it was −0.99%. Further, the “concentration of IFN-γ in LPS stimulated cells” value in the assay with IFN-γ [1] is reported as “decreased”. For the same compound, the “Percentage IFN-γ levels compared to 100% untreated cells under Con A stimulation” value in the assay on IFN-γ [2] (+ Con A, compound 1 μM, 24 h) is 63.40%; with IFN-γ [2] (+ Con A, compound 10 μM, 24 h), 32.77%; with IFN-γ [2] (+ Con A, compound 100 μM, 24 h), −1.80%; in the assay with IFN-γ [2] (+ Con A, compound 100 μM, 24 h, listed as dobutamine), “significant effect in decreasing”; in the assay with IFN-γ [2] (compound only (no Con A), 1 μM), −2.61%; with IFN-γ [2] (setting [3]), −2.51%. Moreover, the “Percentage IFN-γ levels compared to 100% untreated cells under Con A stimulation” value with IFN-γ [2] (setting [4]) is −3.26%. In the assay on IFN-γ [2], the “concentration of IFN-γ in Con A stimulated cells” value is “decreased”.

The record behind these values is patent publication US20120283334A1, “Treatment of Viral Infections” (Biocopea, Ltd., priority 2009, published 2012).
